{"source": "patent US10385036B2", "about": "“Sulfonamide-substituted indole modulators of RORC2 and methods of use thereof” (Pfizer Inc., priority 2015, dated 2019)", "key": {"[1]": {"system": "IL-17 production from human Th17 cells", "test": "Assay of IL-17 production from human Th17 cells", "format": "cell-based", "settings": "144 h; IL-17A in supernatant by ELISA (MSD) after 6 days, human CD4+ T cells differentiated into Th17; read-out: IC50", "method": "The activity of compound of the invention can be also be determined by an IL-17 production from human Th17 cells assay. In general, this assay measures blockade of IL-17 production, the signature cytokine of T helper 17 (Th17) cells, by compounds. Purified human CD4+ T cells are stimulated with anti-CD3+anti-CD28 and incubated with a cytokine cocktail that induce their differentiation into Th17 in the absence or presence of various concentrations of compound. After 6 days, IL-17A concentration is measured in the cell culture supernatant with an ELISA kit (MSD).\nPreparation of human CD4+ T cells. CD4+ T cells were purified from buffy coats from healthy donors (obtained from Massachusetts General Hospital) by negative selection the following procedure: Mixing 25 mL of blood with 1 mL of Rosette Sep CD4+ T cell enrichment cocktail (StemCell Technologies) followed by application of a layer of 14 mL Ficoll Paque Plus (Amersham GE Healthcare) and subsequent centrifugation at 1200 g for 20 min at room temperature. The Ficoll layer was then harvested and washed with phosphate saline buffer containing 2% (v/v) fetal bovine serum and cells were resuspended with RPMI medium containing 10% (v/v) fetal bovine serum and 10% (v/v) DMSO, frozen and kept in LN2 until used.\n[…] Serial dilutions of compounds of the invention are prepared at 10× final concentration in X-Vivo15 medium containing 3% (v/v) DMSO.\nOn the second day of the assay, a 384-well tissue culture plate was coated with 10 μg/mL anti-hCD3 (eBioscience) at 50 μL/well. After 2 hr at 37° C., the supernatant is discarded and the coated plates are kept in a sterile tissue culture hood.\nThe cytokine plus anti-CD28 cocktail with CD4+ cells is prepared such that the cocktail is diluted 10-fold and cell density is 0.22×10^6/mL. The mixture is incubated 1 hr at 37° C.\n90 μL (20,000 cells) dispensed per well in the anti-hCD3 coated plate prepared as noted above.\n10 μL 10× compound is added per well (final DMSO=0.3%) from the compound plate that was previously prepared, followed by 6 days of incubation in a tissue culture vessel in a humidified chamber at 37° C. and 5% CO2.\nMeasurement is carried out in a Sector Imager 6000 by the same manufacturer. Signal units from the instrument are converted to pg/mL using a calibration curve with known amounts of IL-17A. IC50 values of test compounds (Table 2) are determined by the non-linear regression analysis of dose response curves."}, "[2]": {"target": "RORC2 ligand binding domain (6-His-RORC2 LBD) (Homo sapiens (Human), UniProt P51449)", "sequence (P51449 269-508)": "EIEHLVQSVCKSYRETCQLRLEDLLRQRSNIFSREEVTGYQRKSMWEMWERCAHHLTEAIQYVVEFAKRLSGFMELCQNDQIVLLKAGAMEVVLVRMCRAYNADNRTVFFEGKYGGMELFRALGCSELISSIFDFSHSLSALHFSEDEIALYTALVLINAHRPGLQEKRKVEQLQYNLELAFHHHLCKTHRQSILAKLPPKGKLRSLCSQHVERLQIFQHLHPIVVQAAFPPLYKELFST", "test": "Assay of co-activator recruitment by TR-FRET", "format": "biochemical", "settings": "6-His-RORC2 LBD / biotin-coactivator peptide SRC1-2 interaction, 3 hr room temperature", "method": "The activity of compound of the invention can be determined by a co-activator recruitment by TR-FRET (time-resolved fluorescence resonance energy transfer) assay. […] When receptor and coactivator are bound to each other, upon shining light at 337 nm on the sample, the Europium emits fluorescence that excites APC due to close proximity (FRET) and this signal is measured at 665 nm. Due to the long lasting fluorescence emission of Europium, the non-specific, short-lived fluorescence is time-resolved (TR) from the fluorescence of interest. Inhibitors of the interaction of receptor and coactivator peptide are detected by a decrease in TR-FRET signal.\nSpecifically, in one embodiment the aforementioned assay was performed as outlined below. The assay was carried out in black polystyrene, 384-well plates in a total assay volume of 50.5 μL. The assay buffer contained 50 mM TRIS-HCL pH 7.5, 1 mM NaCl, 2 mM MgCl2, 0.5 mg/mL bovine serum albumin, and 5 mM dithiothreitol."}}, "note": "pIC50: −log10 of the molar value."}
{"smiles": "Cn1cc(C2CCN(C(=O)CC3CC3)CC2)c2cc(NS(=O)(=O)c3ccc(F)cc3)ccc21", "note": "[Example 13, N-(3-(1-(2-Cyclopropylacetyl)piperidin-4-yl)-1-methyl-1H-indol-5-yl)-4-fluorobenzenesulfonamide]", "values": [{"measurement": "pIC50", "setting": "[1]", "value": 6.51}, {"measurement": "pIC50", "setting": "[2]", "value": 7.77}]}
{"smiles": "Cc1cccc(F)c1C(=O)N1CCC(c2cn(C)c3ccc(NS(=O)(=O)c4ccc(F)cc4)cc23)CC1", "note": "[Example 15, 4-fluoro-N-(3-(1-(2-fluoro-6-methylbenzoyl)piperidin-4-yl)-1-methyl-1H-indol-5-yl)benzenesulfonamide]", "values": [{"measurement": "pIC50", "setting": "[1]", "value": 6.72}, {"measurement": "pIC50", "setting": "[2]", "value": 8.17}]}
{"smiles": "CC(C)[C@H](C)C(=O)N1CCC(c2cn(C)c3ccc(NS(=O)(=O)c4ccc(F)cc4)cc23)CC1", "note": "[Example 16, (S)-N-(3-(1-(2,3-dimethylbutanoyl)pipendin-4-yl)-1-methyl-1H-indol-5-yl)-4-fluorobenzenesulfonamide]", "values": [{"measurement": "pIC50", "setting": "[1]", "value": 7.27}, {"measurement": "pIC50", "setting": "[2]", "value": 8.51}]}
{"smiles": "Cn1cc(C2CCN(C(=O)C3CCCC3)CC2)c2cc(NS(=O)(=O)c3ccccc3F)ccc21", "note": "[Example 17, N-(3-(1-(cyclopentanecarbonyl)piperidin-4-yl)-1-methyl-1H-indol-5-yl)-2-fluorobenzenesulfonamide]", "values": [{"measurement": "pIC50", "setting": "[1]", "value": 6.94}, {"measurement": "pIC50", "setting": "[2]", "value": 8.23}]}
{"smiles": "COc1cc(S(=O)(=O)Nc2ccc3c(c2)c(C2CCN(C(=O)C(C)C)CC2)cn3C)ccc1F", "note": "[Example 22, 4-fluoro-N-(3-(1-isobutyrylpiperidin-4-yl)-1-methyl-1H-indol-5-yl)-3-methoxybenzenesulfonamide]", "values": [{"measurement": "pIC50", "setting": "[1]", "value": 6.57}, {"measurement": "pIC50", "setting": "[2]", "value": 7.97}]}
{"smiles": "Cc1nn(C)c(C)c1S(=O)(=O)Nc1ccc2c(c1)c(C1CCN(C(=O)[C@H](C)C(C)(C)C)CC1)cn2C", "note": "[Example 26, (R)-1,3,5-trimethyl-N-(1-methyl-3-(1-(2,3,3-trimethylbutanoyl)piperidin-4-yl)-1H-indol-5-yl)-1H-pyrazole-4-sulfonamide]", "values": [{"measurement": "pIC50", "setting": "[1]", "value": 8.29}, {"measurement": "pIC50", "setting": "[2]", "value": 8.89}]}
{"smiles": "Cc1noc(C)c1S(=O)(=O)Nc1ccc2c(c1)c(C1CCN(C(=O)[C@H](C)C(C)(C)C)CC1)cn2C", "note": "[Example 30, (R)-3,5-dimethyl-N-(1-methyl-3-(1-(2,3,3-trimethylbutanoyl)piperidin-4-yl)-1H-indol-5-yl)isoxazole-4-sulfonamide]", "values": [{"measurement": "pIC50", "setting": "[1]", "value": 7.70}, {"measurement": "pIC50", "setting": "[2]", "value": 8.00}]}
{"smiles": "C[C@@H](C(=O)N1CCC(c2cn(C)c3ccc(NS(=O)(=O)c4ccc(F)cc4)cc23)CC1)C12CC(C1)C2", "note": "[Example 31, (R)-N-(3-(1-(2-(bicyclo[1.1.1]pentan-1-yl)propanoyl)piperidin-4-yl)-1-methyl-1H-indol-5-yl)-4-fluorobenzenesulfonamide]", "values": [{"measurement": "pIC50", "setting": "[1]", "value": 7.59}, {"measurement": "pIC50", "setting": "[2]", "value": 8.62}]}
